{
  "source": "patent US9011915B2",
  "about": "“Conveniently implantable sustained release drug compositions” (Ramscor, Inc., priority 2004, dated 2015)",
  "key": {"[1]": {"conditions": "cited from earlier work"}, "[2]": {"conditions": "cited from earlier work", "remark": "listed apart in the source"}, "COX-1 and COC-2 enzymes": {"system": "COX-1 and COC-2 enzymes", "conditions": "acetylation of COX enzymes, in the eye; cited from earlier work"}, "[3]": {"conditions": "ingested 650 mg 2-ABA, cited from earlier work; for maximum synovial fluid levels / time of maximum synovial fluid levels: human knee"}, "[4]": {"conditions": "cited from earlier work", "remark": "listed apart in the source"}, "[5]": {"assay": "In vivo release of rapamycin from TEAC formulation in vitreous cavity, LC-MS", "design": "species or system NZW rabbits", "conditions": "5.0 mg rapamycin in 10:90 rapamycin:TEAC mixture", "experimental": "Five (5.0) mg rapamycin contained in a 10:90 rapamycin:TEAC mixture were injected into the vitreous cavity of one eye in three 4.0-4.5 kg. NZW rabbits. Vitreous sampling was performed in each animal, and the concentration of released Rapamycin determined by liquid chromatography and mass spectrometry."}, "[6]": {"conditions": "continuously exceeded over an extended period of time; cited from earlier work"}, "[7]": {"conditions": "3:1 dexamethasone:ciprofloxacin in benzyl benzoate", "procedure": "The vials for the release studies were labeled and the weight of each vial was recorded. To each vial was added 3-4 grams of 0.9% saline solution and the weight was recorded. Then the SRF was injected or placed at the bottom of the vial. The weight of the SRF was recorded. An additional amount of 0.9% saline solution was added to a total of 10 grams of saline. The resulting vial was kept in an incubator or water bath at 37° C. Samples were taken periodically to measure the release profile of dexamethasone or triamcinolone acetonide using a HPLC instrument. Sampling protocol was carried out according to the following procedure: Using a disposable pipette, 8 grams of the saline solution containing dexamethasone or triamcinolone acetonide was withdrawn carefully from each vial. 8 grams of 0.9% saline solution was then added to each vial. The vials were kept at 37° C. after sampling.\nThe HPLC analysis was carried out using a Beckman Gold Instrument with an autosampler. […] Calibrators and samples were injected onto a C18 column (Rainin, 250×4.6 mm) containing a guard column (C18, 4.6 mm×1 cm) and analyzed, respectively. […] The dexamethasone or triamcinolone acetonide (retention times, 6-4 minutes) concentration of each sample was calculated from the standard curve using the software of the Beckman Gold instrument."}, "[8]": {"assay": "In vivo release of dexamethasone from 25% dexamethasone in benzyl benzoate (DB) injected into posterior segment, vitreous humor HPLC", "design": "species or system rabbit", "conditions": "for mean vitreous level of dexamethasone: 25% formulation in benzyl benzoate", "experimental": "Benzyl benzoate (BB) served as placebo.\nThe in vivo release of the DB composition was studied in twenty-four rabbits. Twenty-five μl of 25% DB was injected into the posterior segment of one eye of twelve animals and the contralateral eye received a placebo. Another twelve animals received 50 μl of the DB in one eye and 50 μl of the BB placebo in the second eye. Animals were euthanized at the appropriate time points and vitreous humor samples were removed surgically. Dexamethasone concentration was determined by high pressure liquid chromatography (HPLC) as described in Example 5."}, "blood glucose levels": {"system": "blood glucose levels", "assay": "Injected versus transdermal delivery of insulin, blood glucose levels", "type": "in vivo, mouse", "experimental": "The comparison of injected versus transdermal delivery of several formulation of insulin was studied in a mouse model. One mg of porcine insulin was injected IP (intraperitoneal) into a mouse. […] One mg of porcine insulin mixed with 0.1 ml of tocopherol acetate was applied topically on the skin of a shaved mouse.\nPorcine insulin (20 mg) was mixed in 199 mg/ml of tocopheryl acetate and formed a paste (or gel) which and was applied to the backs of shaved albino mice as follows: Mouse #1 was treated with 39.8 mg of insulin/tocopherol acetate paste, equaling 3.6 mg of insulin; mouse #2 was treated with 75.2 mg of insulin/tocopherol acetate paste, equaling 6.9 mg of insulin. Tail blood glucose levels were determined by Home Diagnostics, Inc. True Track smart system at intervals depicted in FIG. 22."}, "[9]": {"conditions": "1 mg porcine insulin injected IP"}, "[10]": {"conditions": "1 mg porcine insulin mixed with 0.1 ml tocopherol acetate, injected IP"}},
  "note": "Where two headings read alike, the source gives them in different places.",
  "data": [
    {"compound": "CC(=O)Oc1ccccc1C(=O)O", "note": "[2-ABA, 2-acetyloxybenzoic acid]", "values": [
      {"measurement": "combined 2-ABA/2-HBA levels in the plasma", "setting": "[1]; ingestion of 0.650-1.3 g 2-ABA, humans", "value": "20 to 100", "unit": "µg/mL"},
      {"measurement": "fraction hydrolyzed to 2-HBA in the plasma", "setting": "[1]; within 30 minutes", "value": "about 97%"},
      {"measurement": "time in which an initial level is halved in the vitreous", "setting": "[2]; initial level of 4 μg/ml", "value": "1.5 to 2", "unit": "h"},
      {"measurement": "concentration of 2-ABA/2-HBA in the vitreous", "setting": "[2]; rabbit eyes, at plasma levels of about 20-100 μg/ml", "value": "5000 to 10000", "unit": "ng/mL"},
      {"measurement": "ID50", "setting": "COX-1 and COC-2 enzymes", "value": "0.9 to 9.0", "unit": "µg/mL"},
      {"measurement": "maximum synovial fluid levels", "setting": "[3]", "value": 2.5, "unit": "µg/mL"},
      {"measurement": "time of maximum synovial fluid levels", "setting": "[3]", "value": 19.4, "unit": "min"},
      {"measurement": "maximum plasma levels", "setting": "[3]", "value": 3.3, "unit": "µg/mL"},
      {"measurement": "time of maximum plasma levels", "setting": "[3]", "value": 7.7, "unit": "min"},
      {"measurement": "time until gone in the blood", "setting": "[3]", "value": 75, "unit": "min"}
    ]},
    {"compound": "O=C(O)c1ccccc1O", "note": "[2-HBA, 2-hydroxy benzoic acid]", "values": [
      {"measurement": "maximum synovial fluid levels", "setting": "[3]", "value": 14.5, "unit": "µg/mL"},
      {"measurement": "time of maximum synovial fluid levels", "setting": "[3]", "value": 21.9, "unit": "min"},
      {"measurement": "maximum plasma levels", "setting": "[3]", "value": 23, "unit": "µg/mL"},
      {"measurement": "time of maximum plasma levels", "setting": "[3]", "value": 10.9, "unit": "min"},
      {"measurement": "2-HBA level", "setting": "[4]; after 120 hours", "value": 5, "unit": "µg/mL"},
      {"measurement": "2-HBA level", "setting": "[4]; in 20 hours", "value": 20, "unit": "µg/mL"},
      {"measurement": "2-HBA level, initial burst", "setting": "[4]; within 6 hours", "value": 640, "unit": "µg/mL"}
    ]},
    {"compound": "CO[C@H]1C[C@@H]2CC[C@@H](C)[C@@](O)(O2)C(=O)C(=O)N2CCCC[C@H]2C(=O)O[C@H]([C@H](C)C[C@@H]2CC[C@@H](O)[C@H](OC)C2)CC(=O)[C@H](C)/C=C(\\C)[C@@H](O)[C@@H](OC)C(=O)[C@H](C)C[C@H](C)/C=C/C=C/C=C/1C", "note": "[Rapamycin, rapamycin]", "values": [
      {"measurement": "duration of release of Rapamycin", "setting": "[5]", "value": "over five"}
    ]},
    {"compound": "CC1(C)O[C@@H]2C[C@H]3[C@@H]4CCC5=CC(=O)C=C[C@]5(C)[C@@]4(F)[C@@H](O)C[C@]3(C)[C@]2(C(=O)CO)O1", "note": "[TA, triamcinolone acetonide]", "values": [
      {"measurement": "concentration above which harmful complications (glaucoma, cataracts, cytotoxicity) can arise", "setting": "[6]", "value": "exceed 10 μg/ml"}
    ]},
    {"compound": "O=C(O)c1cn(C2CC2)c2cc(N3CCNCC3)c(F)cc2c1=O", "note": "[ciprofloxacin]", "values": [
      {"measurement": "duration of release", "setting": "[7]", "value": "sixty"}
    ]},
    {"compound": "C[C@@H]1C[C@H]2[C@@H]3CCC4=CC(=O)C=C[C@]4(C)[C@@]3(F)[C@@H](O)C[C@]2(C)[C@@]1(O)C(=O)CO", "note": "[dexamethasone]", "values": [
      {"measurement": "mean vitreous level of dexamethasone", "setting": "[8]; 25 μl injection, over a sixty day period", "value": "approximately 4.0 μg/ml"},
      {"measurement": "mean vitreous level of dexamethasone", "setting": "[8]; 50 μl, over a three-month period", "value": "approximately 8.0 μg/ml"},
      {"measurement": "mean concentration of released dexamethasone in vitreous humor", "setting": "[8]; high dose: 50 μl 25% DB (12 mg dexamethasone), Day 7 to Day 90", "value": 5560, "unit": "ng/mL"},
      {"measurement": "mean level of dexamethasone in vitreous humor", "setting": "[8]; low dose: 25 μl 25% DB (6 mg dexamethasone), Day 7 to Day 60", "value": 2800, "unit": "ng/mL"},
      {"measurement": "concentration at 60 day", "setting": "[8]; rabbit, vitreous humor, other: injected into the posterior segment of the eye, 6 mg, low dose: 25 μl 25% DB, end of the Day 7 to Day 60 period, read-out: mean level of dexamethasone in vitreous humor, declined to", "value": 800, "unit": "ng/mL"},
      {"measurement": "concentration at 90 day", "setting": "[8]; rabbit, vitreous humor, other: injected into the posterior segment of the eye, 12 mg, high dose: 50 μl 25% DB, by Day 90, read-out: mean level of dexamethasone in vitreous humor", "value": 1850, "unit": "ng/mL"}
    ]},
    {"compound": "porcine insulin: porcine insulin", "values": [
      {"measurement": "recovery from hypoglycemia", "setting": "blood glucose levels; [9]", "value": "never recovered"},
      {"measurement": "time to precipitous drop in glucose level", "setting": "blood glucose levels; [9]", "value": "one-half"},
      {"measurement": "recovery from hypoglycemia", "setting": "blood glucose levels; [10]", "value": "did not recover"},
      {"measurement": "time over which perceptible drop in glucose level was seen", "setting": "blood glucose levels; [10]", "value": "up to 3 hours"},
      {"measurement": "time of lowest glucose level", "setting": "blood glucose levels; 1 mg porcine insulin mixed with 0.1 ml tocopherol acetate, topically on shaved skin", "value": 5.5, "unit": "h"},
      {"measurement": "slow recovery to pre-treatment glucose levels after", "setting": "blood glucose levels; transdermal insulin with tocopherol acetate", "value": "24 to 48", "unit": "h"}
    ]}
  ]
}
